Measured values published in patent publication US20100130476A1, “COMPOUNDS THAT INDUCE PANCREATIC BETA-CELL EXPANSION” (The Scripps Research Institute, priority 2008, published 2010).
Entries after “also recorded” stand apart in the source; their conditions may differ.

Tests used:
[1] = test system: growth-arrested R7T1 β cells; experiment: R7T1 β-cell proliferation, CellTiter Glo assay (high-throughput screen and follow-up); assay type: cell-based, mouse
Method: (§1) R7T1 β-cells are expanded in growth medium (DMEM with 15% horse serum and 2.5% FBS) in the presence of 10 μg/ml doxycycline. (3TC-tet cells are expanded in growth medium (DMEM with 15% horse serum and 2.5% FBS) in the absence of 10 μg/ml doxycycline. Hamster HIT-T15 β-cells are grown in F12 medium with 15% horse serum and 2.5% FBS. MIN6 cells are cultured in DMEM with 15% FBS. HEK293 cells are grown according to instructions from ATCC (http://www.atcc.org/).
R7T1 β-cells are expanded in large quantities in growth medium in the presence of 10 μg/ml doxycycline and then are growth arrested by removal of doxycycline for one week. For the primary screen, growth-arrested cells are plated onto 384- or 1536-well plates in growth medium without doxycycline at a density of 4000 cells/well in 384-well plate or 1000 cells/well in 1536-well plate in an automated high-throughput screening platform (designated as Day 0). […] For data analysis, the median of a plate is calculated and the activity of each well is the signal/median of the plate. A signal in any well over 1.5 of the median is regarded as a primary hit. For the reconfirmation screen, growth-arrested R7T1 cells are plated onto 384-well plates and screened against all primary hits in quadruplicate. To eliminate tetracycline mimetics among all reconfirmed primary hits, βTC-tet cells are plated onto 384-well plates at a density of 2000 cells/well in growth medium in the presence of 10 μg/ml doxycycline, and 1.25 μM compound is added after overnight incubation and refreshed 4 days later. The effects on β-cell replication are then determined at Day 8 using the CellTiter Glo assay system. Any compound that increases the readings more than 1.5 fold is regarded as a hit.
SV40 T antigen (TAg) oncoprotein under the control of the Tet-On system was used to immortalize mouse β cells so that these engineered β cells proliferate when TAg is induced in the presence of tetracycline (Tet), but undergo growth arrest upon withdrawal of Tet (see, Efrat S, et al., Proc. Natl. Acad. Sci. USA 92:3576-3580 (1995); Fleischer N, et al, Diabetes 47:1419-1425 (1998); and Milo-Landesman D, et al., Cell Transplant. 10:645-650 (2001)). Although not a true mimic of in vivo quiescent β cells, this system should allow us to identify small molecules that are able to induce reentry into cell cycle and proliferation of growth-arrested cells. Indeed, these engineered cells express high levels of β-cell signature markers, including insulin 1, insulin 2, and Pdx1, and are able to secrete insulin and restore and maintain euglycemia in STZ-treated diabetic mice when induced to growth arrest and transplanted (see, Efrat S, et al., supra; and Milo-Landesman D, et al., supra). A total of ≈850,000 compounds were screened with an automated high-throughput screening platform for their ability to induce the proliferation of growth-arrested β cells in either a 384- or 1,536-well plate format. In the primary screen, proliferation was assayed by using a luminescent assay measuring intracellular ATP content, which is directly proportional to viable cell number (see, Materials and Methods). To rule out any possible Tet mimetics that induce the proliferation of β cells through the induction of SV40 TAg expression, the Tet-Off immortalized β-cell line βTC-Tet was used for a counterscreen.

rat primary β cells = experiment: Primary β-cell proliferation assay, rat (C-peptide/Ki-67 double staining); assay type: cell-based; details: for increase in replicating primary rat β cells (Ki-67/C-peptide): 72 h, compared with DMSO; for increase in rat C-peptide/Ki-67 double positive β-cells: 72 hours (3 days), concentration not given
Method: (§2) Islets are isolated by the standard Liberase digestion method from the pancreata of adult Sprague-Dawley rats (200-250 g) (Liberase III; Roche Applied Science) and cultured in RPMI medium with 10% FBS. Briefly, 6 ml of ice-cold Liberase solution (Roche Applied Science) is injected into the pancreas via the common bile duct. After dissection, the pancreas is incubated for 35 minutes at 37° C. and then further dissociated by repeated pipetting using a 10-ml pipette. Islets are purified by Histopaque-1.077 (Sigma) density gradient centrifugation and are manually picked using a stereomicroscope. […] Human islets are obtained through the Juvenile Diabetes Research Foundation Islet Distribution Program by Islet Cell Resource Center in Minnesota, USA. The purity and viability of human islets are reported to be 30-70% and 50-70%, respectively. Human islets are cultured in CMRL medium containing 10% FBS.
(§3) Islets or single suspension cells are fixed with 4% formalin solution (Sigma) and stained by standard immuno-fluorescence techniques for C-peptide (anti-human C-peptide antibody from Raybiotech, Inc., and anti-rat C-peptide antibody from Linco, Inc.) and Ki-67 (anti-Ki-67 antibody from Abcam), a marker of proliferating cells. Nuclear DNA is stained with DAPI (Molecular Probes). At least 30,000 C-peptide positive cells are counted in each experiment, performed in triplicate. The images are taken on a Nikon Eclipse TE300 microscope with 200× magnification. Proliferating C-peptide/Ki-67 double positive β-cells are counted manually.

[2] = test system: Super (8×) TOPFlash reporter; experiment: Super (8×) TOPFlash Wnt reporter in HEK293 cells; assay type: cell-based
Method: (§4) (A) Chemical structures of 5-thiophene pyrimidines. […] Relative luminescence unit (RLU) was measured by CellTiter-Glo assay after 7-day incubation of growth-arrested R7T1 β cells with 1a, which was added at day 0 and refreshed at day 4; experiments were performed in quadruplicate. All data in this paper are presented as mean±SD, unless otherwise specified. (C) Dose-dependent effects of 1a on the activation of Super (8×) TOPFlash reporter. HEK293 cells transfected with Super (8×) TOPFlash reporter were treated with 1a at the indicated concentrations 24 h after transfection. Luciferase activity was measured 48 h after compound treatment. (D and E) The proliferative effect of 1a on rat primary β cells. (D) After incubation for 72 h with 2 μM 1a, replicating β cells were identified by double-immunofluorescence staining by using anti-C-peptide antibody to mark β cells (green) and antibody against Ki-67, a proliferation marker (red). Nuclear DNA was stained with DAPI (blue). (Scale bar, 10 μm.) (E) The percentage of Ki-67-positive cells of all C-peptide-positive cells, which corresponds to the fraction of replicating β cells. The number of proliferating primary β cells increased after incubation for 72 h in the presence of 2 μM 1a compared with DMSO control: 1a at 2 μM increases the replicating β cells ≈2-fold. (F) Compound 1a stimulates the translocation of β-catenin into the nucleus. Nuclear β-catenin accumulation (green arrows) was increased in 10 μM 1a-treated HEK293 cells; in DMSO-treated control cells, β-catenin staining is weak and appears to concentrate at the cell surface. […] CellTiter-Glo activity was measured 7 days after compound treatment.

[3] = test system: Wnt reporter whose β-catenin/TCF binding sites are mutated; experiment: Mutated Wnt reporter; assay type: cell-based; details: data not shown
GSK3-β = GSK3-β (Homo sapiens, UniProt P49841); experiment: GSK3-β inhibition; assay type: biochemical; details: preliminary investigation
65 kinases = experiment: Kinase profiling; assay type: biochemical; details: 5 μM; 65 kinases profiled
β-catenin = experiment: Nuclear β-catenin translocation in HEK293 cells; assay type: cell-based; details: 10 μM, versus DMSO, listed as 1a
Method: as §4, with “≈2-fold.” for “≈2-fold. (F) Compound 1a stimulates the translocation of β-catenin into the nucleus. Nuclear β-catenin accumulation (green arrows) was increased in 10 μM 1a-treated HEK293 cells; in DMSO-treated control cells, β-catenin staining is weak and appears to concentrate at the cell surface.”

HIT-T15 β cells = experiment: HIT-T15 β-cell proliferation (BrdU incorporation assay); assay type: cell-based, Hamster
Method: as §1

MIN6 cells [4] = experiment: MIN6 β-cell proliferation (BrdU incorporation assay); assay type: cell-based
Method: as §1

human primary β cells = experiment: Primary β-cell proliferation assay, human (C-peptide/Ki-67 double staining); assay type: cell-based
Method: as §2, §3

MIN6 cells [5] = experiment: Calcium influx assay (fluo-3, FLIPR); assay type: cell-based; details: MIN6 β cells
Method: Calcium Influx Assay.Measurement of intracellular Ca^2+ ([Ca^2+]i) was performed by using a fluorescence laser-imaging plate reader (FLIPR; Molecular Devices). Briefly, MIN6 cells cultured in 384-well plates were incubated for 1 h with 4 μM fluo-3/AM (Molecular Probes) and 0.04% pluronic acid in physiological Locke's buffer (154 mM NaCl, 5.6 mM KCl, 1.0 mM MgCl2, 2.3 mM CaCl2, 8.6 mM Hepes, 5.6 mM glucose, and 0.1 mM glycine [pH 7.4]). After incubation, MIN6 cells were washed with Locke's buffer by using an automated cell washer to remove extracellular dye. MIN6 cells were treated with compounds at the indicated concentrations. These cells were excited at 488 nm and Ca^2+-bound fluo-3 emission was recorded at 500-560 nm.

[6] = test system: growth-arrested R7T1 β cells; experiment: Microarray analysis of gene expression; assay type: cell-based, mouse
Method: RNA extraction from R7T1 β-cells treated with compounds at the indicated time points is performed using RNeasy kits (Qiagen). The integrity and concentration of RNA is determined by microfluidic analysis on an Experion instrument (BioRad). Standard Affymetrix single amplification is performed using 5 μg total RNA. Standard Affymetrix protocols are used to process Affymetrix MOE430—2 microarrays (Affymetrix). All CEL file images are processed as a single group using gcRMA.

Ras = Ras activation analysis (GST-Raf1 RBD pull-down); assay type: cell-based, mouse; details: growth-arrested R7T1 β cells; for Ras-GTP level / Ras signaling (in words): 0.5 μM
Method: Ras-GTP levels are detected using the Active Ras Pull-Down and Detection Kit, following the manufacturer's instructions (Pierce). Briefly, growth-arrested R7T1 β-cells are treated with 0.5 μM of a compound of the invention for an indicated time. Cells are then washed twice with ice-cold phosphate-buffered saline (PBS) and lysed in Lysis/Binding/Wash Buffer containing protease inhibitor cocktail [Roche]. Lysates (500 μg) are clarified by centrifugation and supernatants are incubated with 80 μg of GST-Raf1-RBD fusion protein precoupled to glutathione-Sepharose beads. After incubation for 1 hour at 4° C., beads are washed three times in Lysis/Binding/Wash Buffer, resuspended in Laemmli buffer and boiled. Samples are analyzed by SDS-PAGE (4-20%) followed by transfer to nitrocellulose membrane and then are probed with anti-Ras antibody. Blots are developed using the enhanced ECL system.

GSK3-β, sequence (P49841 whole entry, species assumed): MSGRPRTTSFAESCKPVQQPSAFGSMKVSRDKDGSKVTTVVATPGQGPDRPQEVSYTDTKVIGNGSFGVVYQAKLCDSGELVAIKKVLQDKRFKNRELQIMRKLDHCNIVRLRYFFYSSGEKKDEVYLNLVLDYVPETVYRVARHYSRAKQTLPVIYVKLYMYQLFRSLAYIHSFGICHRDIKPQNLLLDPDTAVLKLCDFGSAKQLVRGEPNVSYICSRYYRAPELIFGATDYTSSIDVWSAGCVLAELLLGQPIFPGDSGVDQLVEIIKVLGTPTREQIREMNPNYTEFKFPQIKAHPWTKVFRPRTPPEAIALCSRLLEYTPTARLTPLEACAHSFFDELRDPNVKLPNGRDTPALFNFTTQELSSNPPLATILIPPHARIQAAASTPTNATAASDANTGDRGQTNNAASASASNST

Compound: CN1CCN(C(=O)c2ccc(Nc3nccc(-c4cccs4)n3)cc2Cl)CC1 [Example 1, (2-chloro-4-(4-(thiophen-2-yl)pyrimidin-2-ylamino)phenyl)(4-methylpiperazin-1-yl)methanone]
- EC50 ([1]; Mus musculus, 168 h, CellTiter-Glo after 7-day incubation, read-out: EC50 of replication of growth-arrested R7T1 β cells): ~1100 nM
- expansion of the pancreatic β-cell population ([1]; high-throughput screen, CellTiter Glo at Day 8, screen concentration 1.25 μM): 2.5 fold
- increase in replicating primary rat β cells (Ki-67/C-peptide) (rat primary β cells; 2 μM): ≈ 2 fold
- increase in rat C-peptide/Ki-67 double positive β-cells (rat primary β cells): 2 fold
- activation of the Wnt reporter compared with DMSO ([2]; 10 μM): 15 fold
- EC50 ([2]; Homo sapiens, HEK293 cells, luciferase 48 h after compound treatment, read-out: EC50 of induction of Super (8×) TOPFlash reporter): ~1250 nM
- activity on mutated Wnt reporter [3]: no activity
- IC50 (GSK3-β): 64 nM
- kinases profiled that were inhibited by >75% (65 kinases): 7 of 65
- nuclear β-catenin accumulation (β-catenin): Increased nuclear β-catenin accumulation
- proliferation of HIT-T15 β cells (in words) (HIT-T15 β cells): promote the proliferation
- proliferation of MIN6 β cells (in words) (MIN6 cells [4]): promote the proliferation

Compound: COC(=O)C1=C(C)NC(C)=C([N+](=O)[O-])[C@H]1c1ccccc1C(F)(F)F [Example 2a, (S)-methyl 2,6-dimethyl-5-nitro-4-(2-(trifluoromethyl)phenyl)-1,4-dihydropyridine-3-carboxylate]
- duration of R7T1 proliferation in the presence of the compound [1]: up to 3 weeks
- time to stop of proliferation after removal of the compound [1]: ≤ 1 week
- effect on growth-arrested R7T1 β cells (in words) ([1]; CellTiter-Glo, 7 days): β-cell proliferation
- increase in replicating primary rat β cells (Ki-67/C-peptide) (rat primary β cells; 1 μM): ≈ 2.5 fold
- increase in rat C-peptide/Ki-67 double positive β-cells (rat primary β cells): 2.5 fold
- increase in proliferating human primary β cells (human primary β cells; 1 μM, 72 h, compared with DMSO): ≈ 1.5 fold
- increase in human C-peptide/Ki-67 double positive β-cells (human primary β cells; 72 hours, concentration not given): 1.5 fold
- number of proliferating human primary β cells (in words) (human primary β cells; human islets, 3 days, 2a 1 μM, Ex-4 5 nM where combined): increase the number of proliferating human β cells
- proliferation of HIT-T15 β cells (in words) (HIT-T15 β cells): increased proliferation
- proliferation of MIN6 β cells (in words) (MIN6 cells [4]): increased proliferation
- increase in transient intracellular calcium levels (MIN6 cells [5]; fluo-3, FLIPR): 10 fold
- calcium influx (in words) (MIN6 cells [5]; fluo-3, FLIPR up to 5 min): stimulated
- expression of IRS2 ([6]; 0.5 μM): 1.7 fold
- expression of Ccnd2 (cyclin D2) ([6]; 0.5 μM, 24 h): approximately 1.7 fold
- expression of RasGEFs (RasGRF1, RasGEF1b) (in words) ([6]; 2-6 h after treatment): transcriptionally up-regulated; also recorded: activated
- expression of Ccnd2 (in words) ([6]; 2a 1 μM, Ex-4 5 nM where combined, 2 h to 24 h): increased; also recorded: up-regulated
- expression of β-cell signature markers insulin 1, insulin 2, Pdx1 ([6]; pretreatment versus posttreatment, data not shown): unchanged
- expression of immediate-early genes (Fos, Jun, Egr, Ier families) ([6]; within 30 min, 0.5 μM or 1 μM 2a, Ex-4 5 nM where combined): large increase; also recorded: highly induced
- time of peak Ras-GTP level (Ras): 10 min
- Ras-GTP level / Ras signaling (in words) (Ras): elevated; also recorded: Activation
- Ras-GTP level / Ras signaling (in words) (Ras; listed as (S)-methyl 2,6-dimethyl-5-nitro-4-(2-(trifluoromethyl)phenyl)-1,4-dihydropyridin): activates the Ras pathway
